Experimental data taken from patent publication US12590130B2, “Bipartite molecules and uses thereof in treating diseases associated with abnormal protein aggregates” (ACADEMIA SINICA, priority 2014, dated 2026).
Square brackets hold non-standard residues; d marks the D form. Ends that are not written are not given here. Peptide text beside a SMILES is read from it. * marks the point of attachment. Cbz = O=C(OCc1ccccc1)*

Columns and labels:
109QmHtt [1] = test: Western blot of RIPA-soluble and -insoluble fractions of Neuro2a lysates; assay type: cell-based; conditions: all groups
Procedure: (§1) FIG. 4. Testing the ability of therapeutic peptides to decrease mHtt aggregation in Neuro2a cells overexpressing mHtt. Panel A: Filter trap assays and corresponding quantitation of cells (panel B) treated as indicated at 8 hours (T1), 24 hours (T2), or both (T1+2) after transfection with the 109QmHtt construct. […] Panel C: Western blots and quantitation (panel D) of RIPA-soluble (sol) and -insoluble (ins) fractions of Neuro2a cells overexpressing 25QHtt or 109QmHtt and treated as indicated. […] Panel E: Western blot of the 109QmHtt in cells treated as indicated. Note that MG132 blocked the effect of 8R10Q peptide with respect to decreasing insoluble 109QmHtt. Panel F: Quantitation of ratio of 109QmHtt in cells treated MG132 (+) over DMSO (−) in relationship to peptides. Statistical analysis conducted with one way ANOVA, *<0.05, **<0.01, ***<0.001, ns: not significant.
For further characterization, Neuro2a lysates were separated into the RIPA-soluble (sol) and insoluble (ins) fractions ([…]). 8R10Q peptide decreased the level of mHtt in both the soluble and insoluble fractions as compared with water, 8R, or the scrambled (s8R10Q) control (FIG. 4, panel D). […]

[2] = test system: Mouse N2a neuroblastoma cells
Procedure: Cell viability measurement by MTT assays. […] Each bar was generated by a triplicate experiment; the study was repeated 3 times. The statistics were performed with one way ANOVA corrected with Fisher's LSD test. ***: p<0.001; ****p<0.0001; ns, not significant.
Cell viability assay. The viability of mouse N2a cells incubated with the indicated peptide(s) was measured using the MTT assay.
Mouse N2a neuroblastoma cells (ATCC) were cultured in Dulbecco's modified Eagle's medium (DMEM) (HyClone, USA) supplemented with 10% fetal bovine serum (FBS; HyClone, USA) in 5% CO2 at 37° C. For the cell viability assay, the cells were harvested, suspended at a density of 350,000 cells/mL in DMEM, and 100 μL of each sample was plated in each well of a 96-well CellBIND polystyrene microplate (Corning, USA). […] Cell viability was determined using the MTT (3-[4,5-dimethylthiazol-2-yl]-2,5-diphenyltetrazolium bromide) toxicity assay. […] Ten microliters of 5 mg/mL of MTT in PBS was added to each well, and then, after incubation for 4 h, the medium was removed and the MTT crystals were dissolved in 100 μL of 90% isopropanol, 0.5% SDS, and 40 mM HCl, and their absorption at 570 nm was measured. Cell viability was calculated by dividing the absorbance of the wells containing peptide samples by that of the wells without any added peptide. […]

[3] = Solubility of therapeutic peptides; assay type: physicochemical
Procedure: (§2) In this study, the rational design was tested for HD. Several bipartite therapeutic peptides containing 8 consecutive arginines (8R) attached to a stretch of consecutive glutamines (polyQ) were synthesized and their biological activity of decreasing the aggregation propensity of the mHtt protein was investigated. The length of the polyQ of these bipartite peptides was 5 (8R5Q), 10 (8R10Q), 15 (8R15Q) or 20 (8R20Q) (Table 2).

109QmHtt aggregates = test: TIRF microscopy of mHtt aggregates in Neuro2a cells; assay type: cell-based; conditions: Neuro2a cells expressing 109QmHtt
Procedure: FIG. 3. Diagrams showing the co-localization of tested bipartite peptides with the 109QmHtt aggregates. Panel A: Structure of TAMRA-labeled 8R10Q used in this study. Panel B: Epifluorescence micrographs of Neuro2a cells expressing 109QmHtt treated with TAMRA-8R10Q (8R10Q) at various time points. Note the co-localization of 8R10Q and 109QmHttGFP aggregates (GFP) from 8-24 hours (arrows). Scale bar: 10 μm. Panel C: TIRF micrographs of the Neuro2a expressing 109QmHtt treated with water or peptides as indicated at various time points. Note the decrease in aggregate size in 8R10Q and 8R15Q-treated cells. Panel D: Quantitation of the size of individual aggregates in Neuro2a at 8 hours (left) and 24 hours (right) after peptide treatment. […] Panel E: Quantitation of the number of aggregates in 20 Neuro2a cells at 12 hours (left) and 24 hours (right) after peptide treatment. Both the 8R10Q and 8R15Q increased the number of aggregates. Statistics performed with one way ANOVA. **p<0.01; ***p<0.001.
To probe into the details of the effect of peptide on the mHtt aggregates, the parameters of the mHtt aggregates were visualized and measured using the Total Internal Reflection Fluorescence (TIRF) microscopy. […] The number of aggregates in 20 cells was also calculated. 8R10Q and 8R15Q increased the number of the aggregates by 4-5 fold (FIG. 3, panel E).

[4] = test system: Neuro2a cells expressing 109QmHtt; test: Retinoic acid-induced neurite outgrowth; assay type: cell-based, mouse; conditions: 109QmHtt cells; vs water or scrambled control
Procedure: FIG. 5. Therapeutic effect of 8R10Q and 8R15Q in 109QmHtt-expressing cells. Panel A: Cell viability assay by MTT in Neuro2a cells expressing 25QHtt (left) or 109QmHtt (right) treated with H2O2 at 50 μM and the indicated peptide. Panel B: Cell growth curve of Neuro2a cells expressing 25QHtt or 109QmHtt treated with indicated peptide. The cells in right subpanel were further treated with H2O2 at 12.5 μM 16 hours after transfection. 109QmHtt cells growth was slower than that of the 25QHtt cells. 8R10Q treatment rescued the slow growth of Neuro2a cells by 109QmHtt with or without H2O2. Panel C: Micrographs of the phase contrast and fluorescent images of retinoic acid-differentiated Neu2a cells expressing GFP-25QHtt or GFP-109QmHtt (GFP) treated with the indicated peptide. Note the neurites of the differentiated cells. Panel D: Quantitation of the percentage of differentiated cells with neurites. Fewer 109QmHtt-expressing cells had neurites vs. 25QHtt-expressing cells. […] The experiments were conducted in triplicate and repeated twice. Statistical analysis was performed with one way ANOVA, *p<0.05; **p<0.01; ***p<0.001, ns: not significant.
Retinoic acid (RA) induced the differentiation of Neuro2a cells with neurite outgrowth. 109QmHtt decreased the number of cells bearing RA-induced neurites relative to 25QHtt (FIG. 5, panels C and D).

[5] = Stability of therapeutic peptides determined by HPLC; assay type: physicochemical; conditions: day 0 to day 28
Procedure: FIG. 2. Stability of the therapeutic peptides determined by HPLC. A: diagrams showing the retention time of the tested peptides from day 0 to day 28. B: charts showing the amount of the tested peptides at day 0 and day 28.
as §2

109QmHtt [6] = test: Filter trap assay of aggregated 109QmHtt in Neuro2a cells; assay type: cell-based
Procedure: as §1
Whether the peptides could modulate the aggregation propensity of mHtt was next investigated.

Molecule | Solubility (DMEM/10% FBS) [3] | average size of the aggregates (109QmHtt aggregates) [μm^2] | solubility in water or culture medium [3] | other results
CC(C)C[C@@H](C=O)NC(=O)[C@H](CC(C)C)NC(=O)[C@H](CC(C)C)NC(=O)OCc1ccccc1 [MG132, reference compound] (Cbz-Leu-Leu-Leu-aldehyde) | – | – | – | level of mHtt after MG132 treatment (109QmHtt [1]): increased
CC[C@H](C)[C@H](NC(=O)[C@H](C)NC(=O)CNC(=O)[C@H](CCCCN)NC(=O)[C@H](CC(N)=O)NC(=O)[C@H](CO)NC(=O)CNC(=O)[C@@H](CCCNC(=N)N)NC(=O)[C@@H](CCCNC(=N)N)NC(=O)[C@@H](CCCNC(=N)N)NC(=O)[C@@H](CCCNC(=N)N)NC(=O)[C@@H](CCCNC(=N)N)NC(=O)[C@@H](CCCNC(=N)N)NC(=O)[C@@H](CCCNC(=N)N)NC(=O)[C@H](N)CCCNC(=N)N)C(=O)N[C@H](C(=O)NCC(=O)N[C@@H](CC(C)C)C(=O)N[C@@H](CCSC)C(N)=O)[C@@H](C)CC [^DR8-Aβ(25-35)] (H-[dR][dR][dR][dR][dR][dR][dR][dR]GSNKGAIIGLM-NH2; N-terminus assumed) | – | – | – | viability of Neuro2a cells treated with peptide alone [2]: no detectable toxicity
H-RQQRRQQDQRQWQRQRQQRR-NH2 [s8R10Q, reference compound] | Soluble | 1.7 | – | –
H-RRRRRRRRWD-NH2 [Peptide 8R, NH2-(R)8-W-D-CONH2, reference compound] | Soluble | 3.3 | – | RA-induced neurite outgrowth [4]: rescued the cells from this toxicity to some extent
H-RRRRRRRRWDQQQQQ-NH2 [Peptide 8R5Q, NH2-(R)8-W-D-(Q)5-CONH2] | Soluble | – | highly soluble | –
H-RRRRRRRRWDQQQQQQQQQQQQQQQ-NH2 [Peptide 8R15Q, NH2-(R)8-W-D-(Q)15-CONH2] | aggregated | 0.2 | partially soluble | change in retention time and amount during HPLC analysis [5]: time-dependent decrease in the retention time and amount; aggregated 109QmHtt by filter trap assay (109QmHtt [6]; 20 μM peptide added at 8 hours (T1) or 8 plus 24 hours (T1+T2) after transfection, vs water or 8R): significantly reduced; aggregated 109QmHtt by filter trap assay (109QmHtt [6]; peptide added at 24 hours alone): no obvious effects
H-RRRRRRRRWDQQQQQQQQQQQQQQQQQQQQ-NH2 [Peptide 8R20Q, NH2-(R)8-W-D-(Q)20-CONH2] | aggregated | – | insoluble | change in retention time and amount during HPLC analysis [5]: time-dependent decrease in the retention time and amount
RRRRRRRRGSNKGAIIGLM-NH2 [R8-Aβ(25-35)] | – | – | – | viability of Neuro2a cells treated with peptide alone [2]: no detectable toxicity
TAMRA-NH-(R)8-W-D-CONH2 [TAMRA-8RWD, reference compound] | Soluble | – | – | –
TAMRA-NH-RQQRRQQDQRQWQRQRQQRR-CONH2 ({TAMRA}-RQQRRQQDQRQWQRQRQQRR-NH2) [TAMRA-s8R10Q, reference compound] | Soluble | – | – | –
